Test results from the kinase profiling compilation of Christmann-Franck et al. (2016).
Values belong to the compound of their own block, whether it stands above or below them.

Assays:
Assay in all cases: radiometric filter-binding kinase assay, Kinase HotSpot
Details in all cases: compound 0.5 µM; ATP 10 µM
[1] = target: FGR (human) (UniProt P09769)
[2] = target: PLK2 (human) (UniProt Q9NYY3)
[3] = target: MLTK (human) (UniProt Q9NYL2)
[4] = target: CAMK2B (human) (UniProt Q13554)
[5] = target: FES (human) (UniProt P07332)
[6] = target: GRK4 (human) (UniProt P32298)
[7] = target: IKBKB (human) (UniProt O14920)
[8] = target: NEK2 (human) (UniProt P51955)
Sequence of NEK2 (human) (P51955 whole entry, looked up): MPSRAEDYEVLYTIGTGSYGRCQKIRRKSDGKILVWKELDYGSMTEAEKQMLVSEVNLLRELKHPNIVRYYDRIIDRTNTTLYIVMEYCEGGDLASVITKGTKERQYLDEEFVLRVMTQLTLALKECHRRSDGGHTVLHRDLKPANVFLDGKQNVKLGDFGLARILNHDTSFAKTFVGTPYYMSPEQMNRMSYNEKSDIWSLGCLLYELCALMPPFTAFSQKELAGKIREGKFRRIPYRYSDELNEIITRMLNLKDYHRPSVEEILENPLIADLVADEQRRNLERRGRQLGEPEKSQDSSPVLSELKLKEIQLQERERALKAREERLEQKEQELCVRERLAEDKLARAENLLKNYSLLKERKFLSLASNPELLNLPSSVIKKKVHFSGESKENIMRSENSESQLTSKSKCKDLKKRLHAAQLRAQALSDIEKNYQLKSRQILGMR

[9] = target: CHUK (human) (UniProt O15111)
[10] = target: ACVR1B (human) (UniProt P36896)
[11] = target: SRPK1 (human) (UniProt Q96SB4)
[12] = target: MAPK13 (human) (UniProt O15264)
[13] = target: EPHA3 (human) (UniProt P29320)
[14] = target: CDK1 CCNB1 (human) (UniProt P06493+P14635)
[15] = target: SIK2 (human) (UniProt Q9H0K1)
[16] = target: MARK1 (human) (UniProt Q9P0L2)
[17] = target: PLK1 (human) (UniProt P53350)
[18] = target: NUAK2 (human) (UniProt Q9H093)
Sequence of NUAK2 (human) (Q9H093 whole entry, looked up): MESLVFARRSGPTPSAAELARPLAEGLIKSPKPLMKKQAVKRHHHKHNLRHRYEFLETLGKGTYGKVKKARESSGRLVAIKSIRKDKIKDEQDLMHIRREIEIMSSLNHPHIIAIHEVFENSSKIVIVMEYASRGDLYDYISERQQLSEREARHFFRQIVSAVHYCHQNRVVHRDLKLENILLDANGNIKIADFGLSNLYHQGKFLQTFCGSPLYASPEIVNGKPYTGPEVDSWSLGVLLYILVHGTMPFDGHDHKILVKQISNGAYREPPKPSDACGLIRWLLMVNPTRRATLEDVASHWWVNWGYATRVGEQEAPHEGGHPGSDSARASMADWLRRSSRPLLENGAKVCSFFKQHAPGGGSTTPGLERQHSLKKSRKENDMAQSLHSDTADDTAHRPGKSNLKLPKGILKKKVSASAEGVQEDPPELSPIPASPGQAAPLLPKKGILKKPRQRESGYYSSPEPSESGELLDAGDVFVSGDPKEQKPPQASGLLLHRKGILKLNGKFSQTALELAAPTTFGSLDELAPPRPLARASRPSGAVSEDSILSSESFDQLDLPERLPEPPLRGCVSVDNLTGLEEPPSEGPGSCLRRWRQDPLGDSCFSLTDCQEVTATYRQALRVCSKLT

[19] = target: CHEK2 (human) (UniProt O96017)
Sequence of CHEK2 (human) (O96017 whole entry, looked up): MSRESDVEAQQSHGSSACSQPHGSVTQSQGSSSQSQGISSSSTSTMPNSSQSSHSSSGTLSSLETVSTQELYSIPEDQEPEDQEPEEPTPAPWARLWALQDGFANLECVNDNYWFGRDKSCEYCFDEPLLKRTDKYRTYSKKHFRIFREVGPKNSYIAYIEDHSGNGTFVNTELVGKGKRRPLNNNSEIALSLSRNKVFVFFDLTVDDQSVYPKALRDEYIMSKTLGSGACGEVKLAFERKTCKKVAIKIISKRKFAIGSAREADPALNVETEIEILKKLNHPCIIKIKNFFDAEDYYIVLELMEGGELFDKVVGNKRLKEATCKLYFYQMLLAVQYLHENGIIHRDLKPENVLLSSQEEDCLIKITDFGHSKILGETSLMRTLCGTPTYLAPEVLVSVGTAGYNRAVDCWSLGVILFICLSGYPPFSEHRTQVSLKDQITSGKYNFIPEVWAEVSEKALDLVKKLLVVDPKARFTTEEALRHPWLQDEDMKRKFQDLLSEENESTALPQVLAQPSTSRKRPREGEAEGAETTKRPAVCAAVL

[20] = target: MAP2K1 (human) (UniProt Q02750)
Sequence of MAP2K1 (human) (Q02750 whole entry, looked up): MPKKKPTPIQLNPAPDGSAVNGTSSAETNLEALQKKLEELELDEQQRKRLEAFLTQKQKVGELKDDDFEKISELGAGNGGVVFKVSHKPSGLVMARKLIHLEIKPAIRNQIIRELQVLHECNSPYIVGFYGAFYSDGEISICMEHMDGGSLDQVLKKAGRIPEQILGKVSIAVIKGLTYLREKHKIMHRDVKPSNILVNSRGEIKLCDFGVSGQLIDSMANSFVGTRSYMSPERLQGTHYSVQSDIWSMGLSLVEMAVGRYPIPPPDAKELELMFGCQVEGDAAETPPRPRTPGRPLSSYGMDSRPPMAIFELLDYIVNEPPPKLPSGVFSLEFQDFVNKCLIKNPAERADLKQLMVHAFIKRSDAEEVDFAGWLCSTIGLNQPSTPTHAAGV

[21] = target: MKNK2 (human) (UniProt Q9HBH9)
Sequence of MKNK2 (human) (Q9HBH9 whole entry, looked up): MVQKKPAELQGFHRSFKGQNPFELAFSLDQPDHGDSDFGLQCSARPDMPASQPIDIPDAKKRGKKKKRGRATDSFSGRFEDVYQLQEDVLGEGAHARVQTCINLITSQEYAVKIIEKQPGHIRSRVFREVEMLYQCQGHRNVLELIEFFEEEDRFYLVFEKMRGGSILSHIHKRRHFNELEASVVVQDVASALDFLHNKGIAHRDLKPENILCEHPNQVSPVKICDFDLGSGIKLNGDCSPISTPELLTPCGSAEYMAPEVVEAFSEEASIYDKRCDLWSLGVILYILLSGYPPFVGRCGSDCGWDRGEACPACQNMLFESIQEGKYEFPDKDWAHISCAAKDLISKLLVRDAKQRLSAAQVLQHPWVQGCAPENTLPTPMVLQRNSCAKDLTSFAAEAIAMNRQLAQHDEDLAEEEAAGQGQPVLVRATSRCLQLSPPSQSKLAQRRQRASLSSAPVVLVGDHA

[22] = target: CHEK1 (human) (UniProt O14757)
[23] = target: PRKACA (human) (UniProt P17612)
[24] = target: CDK9 CCNK (human) (UniProt O75909+P50750)
[25] = target: PRKCH (human) (UniProt P24723)
[26] = target: CDK4 CCND3 (human) (UniProt P30281+P11802)
[27] = target: BLK (human) (UniProt P51451)
[28] = target: RIPK2 (human) (UniProt O43353)
[29] = target: ZAP70 (human) (UniProt P43403)
[30] = target: LRRK2 (human) (UniProt Q5S007)
Sequence of LRRK2 (human) (Q5S007 whole entry, looked up): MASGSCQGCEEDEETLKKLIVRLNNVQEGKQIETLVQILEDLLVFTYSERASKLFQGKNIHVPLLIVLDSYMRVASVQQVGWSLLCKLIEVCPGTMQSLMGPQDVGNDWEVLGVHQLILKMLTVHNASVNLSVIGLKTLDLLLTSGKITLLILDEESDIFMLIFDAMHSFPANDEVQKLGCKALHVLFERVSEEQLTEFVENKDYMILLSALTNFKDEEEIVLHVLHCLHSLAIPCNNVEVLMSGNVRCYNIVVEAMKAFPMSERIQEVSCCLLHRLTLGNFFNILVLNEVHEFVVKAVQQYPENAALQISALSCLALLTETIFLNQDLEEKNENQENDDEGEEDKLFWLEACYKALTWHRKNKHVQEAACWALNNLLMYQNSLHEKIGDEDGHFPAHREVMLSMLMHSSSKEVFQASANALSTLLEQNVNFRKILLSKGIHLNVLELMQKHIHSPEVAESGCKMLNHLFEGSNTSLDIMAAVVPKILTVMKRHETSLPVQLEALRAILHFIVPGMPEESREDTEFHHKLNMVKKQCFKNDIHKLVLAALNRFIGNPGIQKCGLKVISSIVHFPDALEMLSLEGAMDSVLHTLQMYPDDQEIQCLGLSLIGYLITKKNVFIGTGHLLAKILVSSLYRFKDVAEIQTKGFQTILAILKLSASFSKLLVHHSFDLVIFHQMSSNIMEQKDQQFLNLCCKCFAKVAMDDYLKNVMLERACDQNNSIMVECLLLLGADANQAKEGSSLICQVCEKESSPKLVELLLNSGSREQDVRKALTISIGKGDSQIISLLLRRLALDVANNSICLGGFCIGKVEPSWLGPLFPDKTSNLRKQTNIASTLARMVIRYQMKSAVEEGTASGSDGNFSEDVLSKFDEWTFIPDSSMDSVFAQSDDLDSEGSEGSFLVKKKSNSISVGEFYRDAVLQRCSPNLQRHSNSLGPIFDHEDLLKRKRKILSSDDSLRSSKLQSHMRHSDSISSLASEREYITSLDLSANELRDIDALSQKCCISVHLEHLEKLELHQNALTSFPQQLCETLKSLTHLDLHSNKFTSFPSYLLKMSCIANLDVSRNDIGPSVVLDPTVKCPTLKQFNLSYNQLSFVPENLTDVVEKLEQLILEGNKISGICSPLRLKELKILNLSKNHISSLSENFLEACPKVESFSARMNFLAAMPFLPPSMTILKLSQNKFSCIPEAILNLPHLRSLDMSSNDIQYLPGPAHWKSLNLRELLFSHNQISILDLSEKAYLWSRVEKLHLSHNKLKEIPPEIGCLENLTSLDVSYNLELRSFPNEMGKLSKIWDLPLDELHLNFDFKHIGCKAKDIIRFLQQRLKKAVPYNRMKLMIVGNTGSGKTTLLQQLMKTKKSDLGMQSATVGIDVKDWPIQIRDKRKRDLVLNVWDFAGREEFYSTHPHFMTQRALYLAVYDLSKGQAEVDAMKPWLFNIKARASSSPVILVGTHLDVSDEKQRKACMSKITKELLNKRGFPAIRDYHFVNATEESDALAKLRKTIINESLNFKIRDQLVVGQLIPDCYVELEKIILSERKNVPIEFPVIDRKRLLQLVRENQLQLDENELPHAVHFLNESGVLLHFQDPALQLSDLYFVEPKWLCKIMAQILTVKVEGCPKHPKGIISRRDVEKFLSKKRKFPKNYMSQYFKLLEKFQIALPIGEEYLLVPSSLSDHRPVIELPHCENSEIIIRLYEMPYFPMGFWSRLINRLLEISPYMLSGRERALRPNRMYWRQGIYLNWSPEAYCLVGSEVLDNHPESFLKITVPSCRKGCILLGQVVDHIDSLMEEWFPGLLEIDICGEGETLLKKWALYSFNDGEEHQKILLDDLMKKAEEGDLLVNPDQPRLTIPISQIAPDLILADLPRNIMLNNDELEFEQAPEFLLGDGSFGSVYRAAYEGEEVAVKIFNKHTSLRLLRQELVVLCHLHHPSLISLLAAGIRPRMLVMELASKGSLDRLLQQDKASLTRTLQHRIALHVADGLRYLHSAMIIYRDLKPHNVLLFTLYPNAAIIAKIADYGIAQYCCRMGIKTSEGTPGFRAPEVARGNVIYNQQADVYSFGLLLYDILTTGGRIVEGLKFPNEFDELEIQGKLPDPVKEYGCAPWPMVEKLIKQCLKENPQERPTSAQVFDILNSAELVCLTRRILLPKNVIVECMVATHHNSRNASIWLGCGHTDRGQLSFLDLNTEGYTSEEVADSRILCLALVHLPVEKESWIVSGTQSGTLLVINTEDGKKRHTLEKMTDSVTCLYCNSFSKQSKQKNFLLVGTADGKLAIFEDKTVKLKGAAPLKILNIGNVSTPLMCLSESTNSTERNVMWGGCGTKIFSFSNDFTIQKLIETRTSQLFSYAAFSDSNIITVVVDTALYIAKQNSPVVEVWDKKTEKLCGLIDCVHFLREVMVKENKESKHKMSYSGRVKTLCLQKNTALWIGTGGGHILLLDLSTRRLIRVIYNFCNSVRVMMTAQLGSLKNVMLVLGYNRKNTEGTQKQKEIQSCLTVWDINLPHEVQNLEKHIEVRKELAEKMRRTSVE

[31] = target: HIPK2 (human) (UniProt Q9H2X6)
[32] = target: TYRO3 (human) (UniProt Q06418)
[33] = target: CDK2 CCNA2 (human) (UniProt P24941+P20248)
[34] = target: PIM2 (human) (UniProt Q9P1W9)
[35] = target: CSNK1G1 (human) (UniProt Q9HCP0)
[36] = target: MAP4K4 (human) (UniProt O95819)
[37] = target: NTRK2 (human) (UniProt Q16620)
[38] = target: SGK3 (human) (UniProt Q96BR1)
[39] = target: TSSK2 (human) (UniProt Q96PF2)
[40] = target: PTK6 (human) (UniProt Q13882)
[41] = target: RPS6KA6 KD1 KD2 (human) (UniProt Q9UK32)
[42] = target: ABL2 (human) (UniProt P42684)

SMILES: COc1cc2c(N3CCN(C(=O)Nc4ccc(OC(C)C)cc4)CC3)ncnc2cc1OCCCN1CCCCC1
- residual activity [1]: 94%
- residual activity [2]: 99.8%
- residual activity [3]: 99.7%
- residual activity [4]: 99.9%
- residual activity [5]: 105%
- residual activity [6]: 106%
- residual activity [7]: 97.3%
- residual activity [8]: 101%
- residual activity [9]: 98.3%
- residual activity [10]: 101%
- residual activity [11]: 98.2%
- residual activity [12]: 99.3%
- residual activity [13]: 94.7%
- residual activity [14]: 97.1%
- residual activity [15]: 98.9%
- residual activity [16]: 89.9%
- residual activity [17]: 101%
- residual activity [18]: 100%
- residual activity [19]: 100%
- residual activity [20]: 113%
- residual activity [21]: 99%
- residual activity [22]: 108%
- residual activity [23]: 103%
- residual activity [24]: 107%
- residual activity [25]: 108%
- residual activity [26]: 104%
- residual activity [27]: 100%
- residual activity [28]: 110%
- residual activity [29]: 116%
- residual activity [30]: 123%
- residual activity [31]: 91.8%
- residual activity [32]: 101%
- residual activity [33]: 93.3%
- residual activity [34]: 113%
- residual activity [35]: 98%
- residual activity [36]: 96.6%
- residual activity [37]: 81.7%
- residual activity [38]: 102%
- residual activity [39]: 96.6%
- residual activity [40]: 92.9%
- residual activity [41]: 106%

SMILES: N#Cc1c(NC(=O)c2cccc3ccccc23)sc2c1CCCC2
- residual activity [1]: 98.1%
- residual activity [2]: 101%
- residual activity [3]: 93.2%
- residual activity [4]: 101%
- residual activity [5]: 103%
- residual activity [6]: 110%
- residual activity [7]: 97%
- residual activity [8]: 88.1%
- residual activity [9]: 99.6%
- residual activity [10]: 96.5%
- residual activity [11]: 102%
- residual activity [12]: 109%
- residual activity [13]: 103%
- residual activity [42]: 98.9%
- residual activity [14]: 111%
- residual activity [15]: 101%
- residual activity [16]: 100%
- residual activity [17]: 96.4%
- residual activity [18]: 76.7%
- residual activity [19]: 98.5%
- residual activity [20]: 98.4%
- residual activity [21]: 106%
- residual activity [22]: 104%
- residual activity [23]: 102%
- residual activity [24]: 90.5%
- residual activity [25]: 97.9%
- residual activity [26]: 97.1%
- residual activity [27]: 105%
- residual activity [28]: 81.3%
- residual activity [29]: 95%
- residual activity [30]: 100%
- residual activity [32]: 101%
- residual activity [33]: 100%
- residual activity [34]: 104%
- residual activity [35]: 109%
- residual activity [36]: 88.9%
- residual activity [37]: 100%
- residual activity [38]: 107%
- residual activity [39]: 104%
- residual activity [40]: 89.8%
- residual activity [41]: 101%

SMILES: O=c1c(-c2ccc(F)cc2)c(-c2ccncc2)[nH]n1-c1ccc(Cl)cc1
- residual activity [1]: 87.4%
- residual activity [2]: 92.5%
- residual activity [3]: 91.2%
- residual activity [4]: 93.7%
- residual activity [5]: 92.3%
- residual activity [6]: 97.9%
- residual activity [7]: 102%
- residual activity [8]: 85.4%
- residual activity [9]: 101%
- residual activity [10]: 123%
- residual activity [11]: 97.9%
- residual activity [12]: 102%
- residual activity [13]: 84.4%
- residual activity [42]: 82.8%
- residual activity [15]: 101%
- residual activity [16]: 94.5%
- residual activity [17]: 98.3%
- residual activity [18]: 88.7%
- residual activity [19]: 91.4%
- residual activity [20]: 70.1%
- residual activity [21]: 97.2%
- residual activity [22]: 101%
- residual activity [23]: 90.7%
- residual activity [24]: 93.4%
- residual activity [25]: 89%
- residual activity [26]: 101%
- residual activity [27]: 91.6%
- residual activity [28]: 50.2%
- residual activity [29]: 108%
- residual activity [30]: 102%
- residual activity [31]: 89%
- residual activity [32]: 105%
- residual activity [33]: 89.9%
- residual activity [34]: 114%
- residual activity [35]: 83.4%
- residual activity [36]: 93.5%
- residual activity [37]: 88.5%
- residual activity [38]: 100%
- residual activity [39]: 80%
- residual activity [40]: 57.5%
- residual activity [41]: 90.3%

- residual activity [1]: 86.1%
- residual activity [2]: 95.8%
- residual activity [3]: 90.4%
- residual activity [4]: 97.3%
- residual activity [5]: 92.8%
- residual activity [6]: 103%
- residual activity [8]: 87.8%
- residual activity [9]: 88.6%
- residual activity [10]: 97.1%
- residual activity [11]: 97%
- residual activity [12]: 100%
- residual activity [13]: 75.1%
- residual activity [42]: 98.8%
- residual activity [14]: 96.8%
- residual activity [15]: 96.4%
- residual activity [16]: 97.6%
- residual activity [17]: 91.4%
- residual activity [18]: 72.5%
- residual activity [19]: 93.9%
- residual activity [20]: 93.2%
- residual activity [21]: 51%
- residual activity [22]: 94.6%
- residual activity [23]: 103%
- residual activity [24]: 26.6%
- residual activity [25]: 98.7%
- residual activity [26]: 85.7%
- residual activity [27]: 102%
- residual activity [29]: 94.5%
- residual activity [30]: 83.4%
- residual activity [31]: 95.8%
- residual activity [32]: 98.3%
- residual activity [33]: 94.4%
- residual activity [34]: 91.2%
- residual activity [35]: 88.8%
- residual activity [36]: 87.1%
- residual activity [37]: 93.2%
- residual activity [38]: 107%
- residual activity [39]: 102%
- residual activity [40]: 46.5%
- residual activity [41]: 87%
SMILES: N#C/C(=C1/Nc2ccccc2S1)c1ccnc(NCCc2cccnc2)n1
